# Measurements as given in patent US11865126B2, “Method for treating anxiety disorders, headache disorders, and eating disorders with psilocybin” (priority 2019, dated 2024).
# Tested on: healthy subjects
# Assay: Symptom Checklist-90 item (SCL-90)
# Format: in vivo, human
# Text: In some embodiments, the Symptom Checklist-90 item (SCL-90) questionnaire is used to evaluate the safety and/or efficacy of psilocybin. The SCL-90 is a relatively brief self-report psychometric instrument designed to evaluate a broad range of psychological problems and symptoms of psychopathology. In some embodiments, the SCL-90 is used to assess somatization, obsessive-compulsive behaviors, interpersonal sensitivity, depression, anxiety, hostility, phobic anxiety, paranoid ideation, and psychoticism of a subject treated according to the methods of the disclosure. The 90 items in the questionnaire are scored on a 5-point Likert scale, indicating the rate of occurrence of the symptom during the time reference. In some embodiments, after treating according to the methods of the disclosure, a subject's SCL-90 score decreases by about 5% to about 100%, for example, by about 5%, about 10%, about 15%, about 20%, about 25%, about 30%, about 35%, about 40%, about 45%, about 50%, about 55%, about 60%, about 65%, about 70%, about 75%, about 80%, about 85%, about 90%, about 95%, or about 100%.
# The Neuroticism Extraversion Openness-Five Factor Inventory (NEO-FFI) and Symptom Checklist-90 Item (SCL-90) were administered. Details of the MMRM applied to the change from baseline scores for the NEO-FFI and SCL-90 are provided below in Table 28.
structure (smiles),measurement,setting,value
CN(C)CCc1c[nH]c2cccc(OP(=O)(O)O)c12 [psilocybin],"SCL-90 - somatisation change from baseline, difference Psilocybin 10 mg - Placebo",Day 7,0.1
same,"SCL-90 - somatisation change from baseline, difference Psilocybin 25 mg - Placebo",Day 7,0.1
same,"SCL-90 - somatisation change from baseline, difference Psilocybin (25 mg-10 mg)",Day 7,−0.0
same,"SCL-90 anger hostility change from baseline, difference Psilocybin 10 mg - Placebo",Day 7,−0.0
same,"SCL-90 anger hostility change from baseline, difference Psilocybin 25 mg - Placebo",Day 7,−0.0
same,"SCL-90 anger hostility change from baseline, difference Psilocybin (25 mg-10 mg)",Day 7,0.0
same,"SCL-90 anxiety change from baseline, difference Psilocybin 10 mg - Placebo",Day 7,−0.0
same,"SCL-90 anxiety change from baseline, difference Psilocybin 25 mg - Placebo",Day 7,0.0
same,"SCL-90 anxiety change from baseline, difference Psilocybin (25 mg-10 mg)",Day 7,0.0
same,"SCL-90 depression change from baseline, difference Psilocybin 10 mg - Placebo",Day 7,0.0
same,"SCL-90 depression change from baseline, difference Psilocybin 25 mg - Placebo",Day 7,0.0
same,"SCL-90 depression change from baseline, difference Psilocybin (25 mg-10 mg)",Day 7,−0.0
same,"SCL-90 interpersonal sensitivity change from baseline, difference Psilocybin 10 mg - Placebo",Day 7,−0.0
same,"SCL-90 interpersonal sensitivity change from baseline, difference Psilocybin 25 mg - Placebo",Day 7,0.0
same,"SCL-90 interpersonal sensitivity change from baseline, difference Psilocybin (25 mg-10 mg)",Day 7,0.1
same,"SCL-90 obsessive compulsive change from baseline, difference Psilocybin 10 mg - Placebo",Day 7,0.1
same,"SCL-90 obsessive compulsive change from baseline, difference Psilocybin 25 mg - Placebo",Day 7,0.1
same,"SCL-90 obsessive compulsive change from baseline, difference Psilocybin (25 mg-10 mg)",Day 7,−0.0
same,"SCL-90 paranoid ideation change from baseline, difference Psilocybin 10 mg - Placebo",Day 7,0.0
same,"SCL-90 paranoid ideation change from baseline, difference Psilocybin 25 mg - Placebo",Day 7,0.1
same,"SCL-90 paranoid ideation change from baseline, difference Psilocybin (25 mg-10 mg)",Day 7,0.1
same,"SCL-90 phobic anxiety change from baseline, difference Psilocybin 10 mg - Placebo",Day 7,−0.0
same,"SCL-90 phobic anxiety change from baseline, difference Psilocybin 25 mg - Placebo",Day 7,0.0
same,"SCL-90 phobic anxiety change from baseline, difference Psilocybin (25 mg-10 mg)",Day 7,0.0
same,"SCL-90 psychoticism change from baseline, difference Psilocybin 10 mg - Placebo",Day 7,0.0
same,"SCL-90 psychoticism change from baseline, difference Psilocybin 25 mg - Placebo",Day 7,0.0
same,"SCL-90 psychoticism change from baseline, difference Psilocybin (25 mg-10 mg)",Day 7,0.0
same,"SCL-90 - somatisation change from baseline, difference Psilocybin 10 mg - Placebo",Day 84,0.0
same,"SCL-90 - somatisation change from baseline, difference Psilocybin 25 mg - Placebo",Day 84,0.0
same,"SCL-90 - somatisation change from baseline, difference Psilocybin (25 mg-10 mg)",Day 84,0.0
same,"SCL-90 anger hostility change from baseline, difference Psilocybin 10 mg - Placebo",Day 84,−0.0
same,"SCL-90 anger hostility change from baseline, difference Psilocybin 25 mg - Placebo",Day 84,−0.0
same,"SCL-90 anger hostility change from baseline, difference Psilocybin (25 mg-10 mg)",Day 84,−0.0
same,"SCL-90 anxiety change from baseline, difference Psilocybin 10 mg - Placebo",Day 84,−0.1
same,"SCL-90 anxiety change from baseline, difference Psilocybin 25 mg - Placebo",Day 84,−0.0
same,"SCL-90 anxiety change from baseline, difference Psilocybin (25 mg-10 mg)",Day 84,0.0
same,"SCL-90 depression change from baseline, difference Psilocybin 10 mg - Placebo",Day 84,0.0
same,"SCL-90 depression change from baseline, difference Psilocybin 25 mg - Placebo",Day 84,0.0
same,"SCL-90 depression change from baseline, difference Psilocybin (25 mg-10 mg)",Day 84,0.0
same,"SCL-90 interpersonal sensitivity change from baseline, difference Psilocybin 10 mg - Placebo",Day 84,−0.1
same,"SCL-90 interpersonal sensitivity change from baseline, difference Psilocybin 25 mg - Placebo",Day 84,−0.0
same,"SCL-90 interpersonal sensitivity change from baseline, difference Psilocybin (25 mg-10 mg)",Day 84,0.0
same,"SCL-90 obsessive compulsive change from baseline, difference Psilocybin 10 mg - Placebo",Day 84,0.1
same,"SCL-90 obsessive compulsive change from baseline, difference Psilocybin 25 mg - Placebo",Day 84,0.0
same,"SCL-90 obsessive compulsive change from baseline, difference Psilocybin (25 mg-10 mg)",Day 84,−0.1
same,"SCL-90 paranoid ideation change from baseline, difference Psilocybin 10 mg - Placebo",Day 84,0.1
same,"SCL-90 paranoid ideation change from baseline, difference Psilocybin 25 mg - Placebo",Day 84,0.1
same,"SCL-90 paranoid ideation change from baseline, difference Psilocybin (25 mg-10 mg)",Day 84,0.0
same,"SCL-90 phobic anxiety change from baseline, difference Psilocybin 10 mg - Placebo",Day 84,−0.0
same,"SCL-90 phobic anxiety change from baseline, difference Psilocybin 25 mg - Placebo",Day 84,0.0
same,"SCL-90 phobic anxiety change from baseline, difference Psilocybin (25 mg-10 mg)",Day 84,0.0
same,"SCL-90 psychoticism change from baseline, difference Psilocybin 10 mg - Placebo",Day 84,−0.0
same,"SCL-90 psychoticism change from baseline, difference Psilocybin 25 mg - Placebo",Day 84,−0.0
same,"SCL-90 psychoticism change from baseline, difference Psilocybin (25 mg-10 mg)",Day 84,0.0
